According to ChEMBL document CHEMBL1681704, “Design and synthesis of novel allosteric MEK inhibitor CH4987655 as an orally available anticancer agent” (Bioorg Med Chem Lett, 2011):
In brackets after ≈: the same amount, converted by molar mass. Activity calls are given as the source filed them. No cut-off for these calls is given here.

Columns and labels:
[1] = Half life in mouse liver microsomes at 1 uM; format: ADME, Microsome
[2] = Toxicity in human HT-29 cells xenografted BALB/c nu/nu mouse assessed as maximum tolerable dose; format: organism-based; conditions: in vivo
[3] = Half life in human liver microsomes at 1 uM; format: ADME, Microsome
QG-56 = experiment: Cytotoxicity against human QG56 cells after 4 days; format: functional, cell-based; conditions: QG-56, 96 h
[4] = Solubility in 50 mM phosphate buffer at pH 6.5 after 2 hrs; format: physicochemical
HT-29 [5] = experiment: Cytotoxicity against human HT-29 cells after 4 days; format: functional, cell-based; conditions: HT-29, 96 h
[6] = Inhibition of MEK after 30 mins
HT-29 [7] = experiment: Antitumor activity against human HT-29 cells xenografted in BALB/c nu/nu mouse assessed as tumor growth inhibition at maximum tolerable dose administered as po qd for 14 days; format: functional
[8] = Cmax in cynomolgus monkey at 6 mg/kg, po; format: ADME, organism-based, Macaca fascicularis; parameters: dose 6 mg/kg, route oral; conditions: in vivo
[9] = Tmax in cynomolgus monkey at 6 mg/kg, po; format: ADME, organism-based, Macaca fascicularis; parameters: dose 6 mg/kg, route oral; conditions: in vivo
[10] = MRT (infinity) in cynomolgus monkey at 1.5 mg/kg, po; format: ADME, organism-based, Macaca fascicularis; parameters: dose 1.5 mg/kg, route oral; conditions: in vivo
[11] = Tmax in cynomolgus monkey at 1.5 mg/kg, po; format: ADME, organism-based, Macaca fascicularis; parameters: dose 1.5 mg/kg, route oral; conditions: in vivo
[12] = Genotoxicity in Salmonella Typhimurium by Ames test; format: toxicity; conditions: salmonella enterica subsp. enterica serovar typhimurium
[13] = Half life in cynomolgus monkey at 3 mg/kg, po; format: ADME, organism-based, Macaca fascicularis; parameters: dose 3 mg/kg, route oral; conditions: in vivo
[14] = Cmax in cynomolgus monkey at 3 mg/kg, po; format: ADME, organism-based, Macaca fascicularis; parameters: dose 3 mg/kg, route oral; conditions: in vivo
HT-29 [15] = experiment: Antitumor activity against human HT-29 cells expressing b-Raf V600E mutant xenografted in CAnN.Cg-Foxn1 nu/CrlCrlj mouse assessed as tumor regression at maximum tolerable dose administered as po qd for 14 days; format: functional
[16] = MRT (infinity) in cynomolgus monkey at 6 mg/kg, po; format: ADME, organism-based, Macaca fascicularis; parameters: dose 6 mg/kg, route oral; conditions: in vivo
Brain = experiment: Inhibition of MEK in human HT-29 cells xenografted in BALB/c nu/nu mouse brain assessed as phosphorylated ERK level at maximum tolerable dose administered as po; format: functional, cell-based
Cytochrome P450 3A4 = Cytochrome P450 3A4 (Homo sapiens, UniProt P08684); experiment: Inhibition of CYP3A4; format: ADME
Cytochrome P450 3A4, sequence (P08684 whole entry): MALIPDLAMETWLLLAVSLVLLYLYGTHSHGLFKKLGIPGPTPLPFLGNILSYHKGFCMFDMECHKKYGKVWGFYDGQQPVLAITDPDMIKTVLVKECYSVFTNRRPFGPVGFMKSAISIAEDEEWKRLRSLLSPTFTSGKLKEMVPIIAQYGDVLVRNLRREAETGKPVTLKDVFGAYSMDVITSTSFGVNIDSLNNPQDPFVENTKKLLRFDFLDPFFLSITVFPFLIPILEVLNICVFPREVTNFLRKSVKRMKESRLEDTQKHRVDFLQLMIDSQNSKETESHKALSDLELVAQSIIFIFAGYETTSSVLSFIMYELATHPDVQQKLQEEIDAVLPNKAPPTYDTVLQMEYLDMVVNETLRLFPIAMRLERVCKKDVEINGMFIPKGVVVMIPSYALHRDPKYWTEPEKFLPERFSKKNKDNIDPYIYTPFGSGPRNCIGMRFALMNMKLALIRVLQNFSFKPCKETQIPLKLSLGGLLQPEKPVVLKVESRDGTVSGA

[17] = Half life in cynomolgus monkey at 6 mg/kg, po; format: ADME, organism-based, Macaca fascicularis; parameters: dose 6 mg/kg, route oral; conditions: in vivo
[18] = Antitumor activity against human H441 cells expressing Kras G12V mutant xenografted in CAnN.Cg-Foxn1 nu/CrlCrlj mouse assessed as tumor regression at maximum tolerable dose administered as po qd for 14 days; format: functional, NCI-H441
[19] = Tmax in cynomolgus monkey at 3 mg/kg, po; format: ADME, organism-based, Macaca fascicularis; parameters: dose 3 mg/kg, route oral; conditions: in vivo
[20] = MRT (infinity) in cynomolgus monkey at 3 mg/kg, po; format: ADME, organism-based, Macaca fascicularis; parameters: dose 3 mg/kg, route oral; conditions: in vivo
[21] = Cmax in cynomolgus monkey at 1.5 mg/kg, po; format: ADME, organism-based, Macaca fascicularis; parameters: dose 1.5 mg/kg, route oral; conditions: in vivo
[22] = AUC (infinity) in cynomolgus monkey at 6 mg/kg, po; format: ADME, organism-based, Macaca fascicularis; parameters: time infinity, dose 6 mg/kg, route oral; conditions: plasma
[23] = AUC (infinity) in cynomolgus monkey at 3 mg/kg, po; format: ADME, organism-based, Macaca fascicularis; parameters: time infinity, dose 3 mg/kg, route oral; conditions: plasma
HT-29 [24] = experiment: Inhibition of MEK in human HT-29 cells xenografted in BALB/c nu/nu mouse tumor assessed as phosphorylated ERK level at maximum tolerable dose administered as po; format: functional, cell-based; conditions: Neoplasm
[25] = target: Voltage-gated inwardly rectifying potassium channel KCNH2 (Homo sapiens, UniProt Q12809); experiment: Inhibition of human ERG
Voltage-gated inwardly rectifying potassium channel KCNH2, sequence (Q12809 whole entry): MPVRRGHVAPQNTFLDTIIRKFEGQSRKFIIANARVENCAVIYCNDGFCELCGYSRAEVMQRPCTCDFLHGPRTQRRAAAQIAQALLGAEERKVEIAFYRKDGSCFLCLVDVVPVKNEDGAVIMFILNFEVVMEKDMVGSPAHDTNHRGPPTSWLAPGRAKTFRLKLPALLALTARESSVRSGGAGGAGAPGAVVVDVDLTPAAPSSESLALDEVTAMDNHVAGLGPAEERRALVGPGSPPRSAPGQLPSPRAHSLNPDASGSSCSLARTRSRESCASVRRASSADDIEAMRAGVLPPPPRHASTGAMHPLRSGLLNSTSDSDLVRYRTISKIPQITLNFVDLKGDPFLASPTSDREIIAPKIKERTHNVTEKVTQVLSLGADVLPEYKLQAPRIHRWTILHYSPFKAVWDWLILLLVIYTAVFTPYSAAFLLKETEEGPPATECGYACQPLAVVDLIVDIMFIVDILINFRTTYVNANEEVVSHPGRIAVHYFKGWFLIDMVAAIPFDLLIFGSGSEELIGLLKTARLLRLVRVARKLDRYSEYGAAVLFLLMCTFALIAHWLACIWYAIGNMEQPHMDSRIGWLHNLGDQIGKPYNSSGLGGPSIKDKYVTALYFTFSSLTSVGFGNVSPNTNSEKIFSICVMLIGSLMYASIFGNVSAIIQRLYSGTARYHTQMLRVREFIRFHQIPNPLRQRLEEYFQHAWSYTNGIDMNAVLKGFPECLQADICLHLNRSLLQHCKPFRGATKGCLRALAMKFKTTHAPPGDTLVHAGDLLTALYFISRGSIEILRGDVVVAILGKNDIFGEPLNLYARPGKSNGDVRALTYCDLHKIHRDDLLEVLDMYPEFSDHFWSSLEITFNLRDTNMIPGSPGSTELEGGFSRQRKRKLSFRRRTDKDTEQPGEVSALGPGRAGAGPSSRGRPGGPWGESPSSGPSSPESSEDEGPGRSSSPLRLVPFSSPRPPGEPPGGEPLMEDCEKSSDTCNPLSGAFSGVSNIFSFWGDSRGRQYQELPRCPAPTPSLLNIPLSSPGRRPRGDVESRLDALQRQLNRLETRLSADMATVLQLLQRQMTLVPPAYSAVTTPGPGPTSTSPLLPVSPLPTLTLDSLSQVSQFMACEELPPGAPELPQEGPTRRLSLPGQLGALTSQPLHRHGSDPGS

[26] = AUC (infinity) in cynomolgus monkey at 1.5 mg/kg, po; format: ADME, organism-based, Macaca fascicularis; parameters: time infinity, dose 1.5 mg/kg, route oral; conditions: plasma
PANC-1 = experiment: Antitumor activity against human PANC1 cells expressing Kras […] mutant xenografted in CAnN.Cg-Foxn1 nu/CrlCrlj mouse assessed as tumor regression at maximum tolerable dose administered as po qd for 14 days; format: functional
[27] = Half life in cynomolgus monkey at 1.5 mg/kg, po; format: ADME, organism-based, Macaca fascicularis; parameters: dose 1.5 mg/kg, route oral; conditions: in vivo
Cynomolgus monkey = experiment: In vivo metabolic stability in cynomolgus monkey assessed as plasma concentration at 2 mg/kg, po; format: ADME, organism-based, Macaca fascicularis; parameters: dose 2 mg/kg, route oral

O=C(NOCCO)c1cc(CNOCCO)c(F)c(F)c1Nc1ccc(I)cc1F
half-life at 1 µM [1]: 2.13 h
MTD [2]: 100 mg/kg
half-life at 1 µM [3]: > 6 h

CS(=O)(=O)CCO/N=C/c1cc(C(=O)NOCCO)c(Nc2ccc(I)cc2F)c(F)c1F
half-life at 1 µM [1]: > 6 h
IC50 (QG-56): 24 nM
MTD [2]: > 200 mg/kg
solubility at 2 h [4]: 1 µM (≈ 0.601 µg/mL)
IC50 (HT-29 [5]): 27 nM
IC50 [6]: 67 nM
TGI (HT-29 [7]): 98%
half-life at 1 µM [3]: 1.5 h

O=C(NOCCO)c1cc(CN2OCCOC2=O)c(F)c(F)c1Nc1ccc(I)cc1F
half-life at 1 µM [1]: 2.1 h
IC50 (QG-56): 56 nM
solubility at 2 h [4]: 57 µM (≈ 32.3 µg/mL)
IC50 (HT-29 [5]): 17 nM
IC50 [6]: 42 nM
half-life at 1 µM [3]: 0.633 h

O=C(NOCCO)c1cc(CN2CCCC2=O)c(F)c(F)c1Nc1ccc(I)cc1F
half-life at 1 µM [1]: 2.07 h
IC50 (QG-56): 57 nM
solubility at 2 h [4]: 156 µM (≈ 85.7 µg/mL)
IC50 (HT-29 [5]): 20 nM
IC50 [6]: 85 nM
half-life at 1 µM [3]: 3.08 h

O=C(NOCCO)c1cc(CN2OCCCC2=O)c(F)c(F)c1Nc1ccc(I)cc1F [RO-4987655]
Cmax [8]: 2100 ng/mL
Tmax [9]: 1.5 h
MRT inf [10]: 8.4 h
Tmax [11]: 1.3 h
half-life at 1 µM [1]: > 6 h
Activity [12]: Non-toxic
half-life [13]: 6 h
Cmax [14]: 1000 ng/mL
Activity (HT-29 [15]): 70%
MRT inf [16]: 7.3 h
inhibition (Brain): inactive
IC50 (Cytochrome P450 3A4): > 100000 nM
half-life [17]: 5 h
Activity [18]: 70%
Tmax [19]: 2.5 h
MRT inf [20]: 8.8 h
Cmax [21]: 400 ng/mL
AUC(0-inf) [22]: 10400 ng·h/mL
AUC(0-inf) [23]: 7400 ng·h/mL
inhibition (HT-29 [24]): Active
inhibition (INH) [25]: Not Active
AUC(0-inf) [26]: 2200 ng·h/mL
Activity (PANC-1): 70%
half-life at 1 µM [3]: 1.93 h
half-life [27]: 6.6 h

O=C(NOCCO)c1cc(/C=N/OCCO)c(F)c(F)c1Nc1ccc(I)cc1F
half-life at 1 µM [1]: 3.95 h
IC50 (QG-56): 160 nM
MTD [2]: 100 mg/kg
IC50 (HT-29 [5]): 80 nM
IC50 [6]: 100 nM
TGI (HT-29 [7]): 82%
half-life at 1 µM [3]: 1.08 h

O=C(NOC[C@H](O)CO)c1ccc(F)c(F)c1Nc1ccc(I)cc1F [MIRDAMETINIB]
Cmax [8]: 1700 ng/mL
Tmax [9]: 1.1 h
MRT inf [16]: 7.3 h
inhibition (Brain): Active
half-life [17]: 5.5 h
Stability (Cynomolgus monkey): Stable
AUC(0-inf) [22]: 7900 ng·h/mL
inhibition (HT-29 [24]): Active

CC(C)(O)CO/N=C/c1cc(C(=O)NOCCO)c(Nc2ccc(I)cc2F)c(F)c1F
half-life at 1 µM [1]: > 6 h
IC50 (QG-56): 128 nM
MTD [2]: 100 mg/kg
IC50 (HT-29 [5]): 40 nM
IC50 [6]: 37 nM
TGI (HT-29 [7]): 85%
half-life at 1 µM [3]: > 6 h

C#Cc1ccc(Nc2c(C(=O)NOCCO)cc(/C=N/OCCO)c(F)c2F)c(F)c1
half-life at 1 µM [1]: 2.25 h
IC50 (QG-56): 160 nM
MTD [2]: > 200 mg/kg
IC50 (HT-29 [5]): 150 nM
IC50 [6]: 235 nM
TGI (HT-29 [7]): 82%
half-life at 1 µM [3]: 1.33 h

CON(Cc1cc(C(=O)NOCCO)c(Nc2ccc(I)cc2F)c(F)c1F)C(C)=O
half-life at 1 µM [1]: 0.6 h
MTD [2]: 25 mg/kg
solubility at 2 h [4]: 116 µM (≈ 64.2 µg/mL)
half-life at 1 µM [3]: 1.07 h

O=C(NOCCO)c1cc(CN2CCOC2=O)c(F)c(F)c1Nc1ccc(I)cc1F
half-life at 1 µM [1]: > 6 h
IC50 (QG-56): 3060 nM
solubility at 2 h [4]: 284 µM (≈ 157 µg/mL)
IC50 (HT-29 [5]): 560 nM
IC50 [6]: > 250 nM
half-life at 1 µM [3]: > 6 h

O=C(NOCCO)c1cc(COCCO)c(F)c(F)c1Nc1ccc(I)cc1F
half-life at 1 µM [1]: > 6 h
MTD [2]: 50 mg/kg
half-life at 1 µM [3]: > 6 h

CC(=O)NCCO/N=C/c1cc(C(=O)NOCCO)c(Nc2ccc(I)cc2F)c(F)c1F
half-life at 1 µM [1]: > 6 h
IC50 (QG-56): 199 nM
MTD [2]: > 200 mg/kg
IC50 (HT-29 [5]): 86 nM
IC50 [6]: 48 nM
TGI (HT-29 [7]): 99%
half-life at 1 µM [3]: > 6 h

O=C(NOCCO)c1cc(CN2OCCC2=O)c(F)c(F)c1Nc1ccc(I)cc1F
half-life at 1 µM [1]: > 6 h
MTD [2]: 12.5 mg/kg
half-life at 1 µM [3]: > 6 h

O=C(NOCCO)c1cc(/C=N\OCCO)c(F)c(F)c1Nc1ccc(I)cc1F
half-life at 1 µM [1]: > 6 h
IC50 (QG-56): 6 nM
MTD [2]: 12.5 mg/kg
IC50 (HT-29 [5]): 2.4 nM
IC50 [6]: 15 nM
TGI (HT-29 [7]): 95%
half-life at 1 µM [3]: > 6 h
